The record followed here is patent US20090163515A1, “Compounds Which Bind to the Active Site of Protein Kinase Enzymes” (Biofocus Discovery Ltd., priority 2003, published 2009).

In this experiment the test system is ROK. The experiment is described as follows: ROK activity assay. Details: key: +: active; ++: more active; +++: very active. It is filed as biochemical. As to conditions: assays conducted at 1-100 μM.
As to `NC(=O)c1cccc(-c2cncc(NCc3cccc(O)c3)c2)c1` [3-[5-(3-Hydroxy-benzylamino)-pyridin-3-yl]-benzamide], the ROK activity entry is reported as “+++”.
Next, `Oc1ccc(-c2cncc(NCc3cccc(O)c3)c2)cc1` [(5-(4′-hydroxy-phenyl)-pyridin-3-yl)-(3-hydroxy-benzyl)-amine]: “+++”; `CC(Nc1cnc(-c2ccc(O)cc2)cn1)c1ccccc1` (stereo not drawn) [4-[5-(1-Phenyl-ethylamino)-pyrazin-2-yl]-phenol]: “++”; `CSc1ccc(-c2cnc(NCCc3ccncc3)cn2)cc1` [[5-(4-Methylsulfanyl-phenyl)-pyrazin-2-yl]-(2-pyridin-4-yl-ethyl)-amine]: “++”.
Turning to `NC(=O)c1cccc(-c2cncc(Nc3cccc(Br)c3)c2)c1` [3-[5-(3-Bromo-phenylamino)-pyridin3-yl]-benzamide], the ROK activity result is recorded as “+”.
On to `Oc1ccc(-c2cncc(NCc3cccc(Cl)c3)c2)cc1` [4-[5-(3-Chloro-benzylamino)-pyridin-3-yl]-phenol], for which the ROK activity entry is reported as “++”.
In the case of `CN(C)CCNC(=O)c1cccc(-c2cncc(Nc3ccc4ccccc4c3)c2)c1` [N-(2-Dimethylamino-ethyl)-3-[5-(naphthalen-2-ylamino)-pyridin-3-yl]-benzamide], the ROK activity result is on record as “+”.
As for `Oc1ccc(-c2cncc(NCc3ccc4c(c3)OCO4)c2)cc1` [4-{5-[(Benzo[1,3]dioxol-5-ylmethyl)-amino]-pyridin-3-yl}-phenol], the ROK activity entry is on record as “++”.
Turning to `NC(=O)c1cccc(-c2cncc(NCc3ccc(Cl)c(F)c3)c2)c1` [3-[5-(4-Chloro-3-fluoro-benzylamino)-pyridin-3-yl]-benzamide], the ROK activity result is “++”.
Next, `Oc1cccc(CNc2cncc(-c3ccncc3)c2)c1` [3-([3,4′]Bipyridinyl-5-ylaminomethyl)-phenol]: “++”; `NC(=O)c1cccc(-c2cncc(Nc3cccc(O)c3)c2)c1` [3-[5-(3-Hydroxy-phenylamino)-pyridin-3-yl]-benzamide]: “++”; `COc1ccc(Nc2cncc(-c3cccc(C(N)=O)c3)c2)cc1` [3-[5-(4-Methoxy-phenylamino)-pyridin-3-yl]-benzamide]: “+”.
Consider `c1cc(-c2cncc(NCc3ccc4c(c3)OCO4)c2)ccn1` [Benzo[1,3]dioxol-5-ylmethyl-[3,4′]bipyridinyl-5-yl-amine], for which the ROK activity entry was “++”.
Next, `OCc1ccc(-c2cnc(NCCc3ccncc3)cn2)cc1` [{4-[5-(2-Pyridin-4-yl-ethylamino)-pyrazin-2-yl]-phenyl}-methanol]: “+”; `Oc1cccc(CNc2cncc(-c3cccc(O)c3)c2)c1` [(5-(3′-hydroxy-phenyl)-pyridin-3-yl)-(3-hydroxy-benzyl)-amine]: “+”.
Next, `NC(=O)c1cccc(-c2cncc(NCC3CCCN3)c2)c1` (stereo not drawn) [3-{5-[(Pyrrolidin-2-ylmethyl)-amino]-pyridin-3-yl}-benzamide]: “+”.
Next, `Oc1ccc(-c2cncc(NCc3ccc(Cl)c(Cl)c3)c2)cc1` [4-[5-(3,4-Dichloro-benzylamino)-pyridin-3-yl]-phenol]: “+”.
For `Brc1ccc(CNc2cncc(-c3ccncc3)c2)cc1` [[3,4′]Bipyridinyl-5-yl-(4-bromo-benzyl)-amine], the ROK activity entry was “+++”.
Next, `Oc1ccc(-c2cnc(NCCc3ccncc3)cn2)cc1` [4-[5-(2-Pyridin-4-yl-ethylamino)-pyrazin-2-yl]-phenol]: “+”; `Brc1cccc(Nc2cncc(-c3ccncc3)c2)c1` [[3,4′]Bipyridinyl-5-yl-(3-bromo-phenyl)-amine]: “++”.
Take `c1cc(-c2cnc(NCc3ccc4c(c3)OCO4)cn2)ccn1` [Benzo[1,3]dioxol-5-ylmethyl-(5-pyridin-4-yl-pyrazin-2-yl)-amine]: the ROK activity result is “++”.
As to `NS(=O)(=O)c1ccc(CNc2cnc(-c3ccncc3)cn2)cc1` [4-[(5-Pyridin-4-yl-pyrazin-2-ylamino)-methyl]-benzenesulfonamide], the ROK activity entry is listed as “++”.
Next, `Oc1ccc(-c2cncc(NCc3ccc4ccccc4c3)c2)cc1` [4-{5-[(Naphthalen-2-ylmethyl)-amino]-pyridin-3-yl}-phenol]: “+”; `COc1ccc(CNc2cncc(-c3cccc(C(N)=O)c3)c2)cc1O` [3-[5-(3-Hydroxy-4-methoxy-benzylamino)-pyridin-3-yl]-benzamide]: “++”; `O=C(NCCO)c1cccc(-c2cncc(NCc3cccc(O)c3)c2)c1` [3-[5-(3-Hydroxy-benzylamino)-pyridin-3-yl]-N-(2-hydroxy-ethyl)-benzamide]: “++”.
For `NC(=O)c1cccc(-c2cncc(NCc3cc(O)cc(O)c3)c2)c1` [3-[5-(3,5-Dihydroxy-benzylamino)-pyridin-3-yl]-benzamide], the ROK activity result is reported as “++”.
As to `CC(C)C(CO)Nc1cnc(-c2ccncc2)cn1` (stereo not drawn) [3-Methyl-2-(5-pyridin-4-yl-pyrazin-2-ylamino)-butan-1-ol], the ROK activity result was “+”.
With `Fc1ccc(-c2cnc(NCCc3ccncc3)cn2)cc1Cl` [[5-(3-Chloro-4-fluoro-phenyl)-pyrazin-2-yl]-(2-pyridin-4-yl-ethyl)-amine], the ROK activity entry is listed as “+”.
`Oc1cccc(CNc2cncc(-c3cccc4ncccc34)c2)c1` [3-[(5-Quinolin-5-yl-pyridin-3-ylamino)-methyl]-phenol]: the ROK activity result was “+++”.
Next, `COc1ccc(CNc2cncc(-c3ccncc3)c2)cc1` [[3,4′]Bipyridinyl-5-yl-(4-methoxy-benzyl)-amine]: “+++”; `c1ccc2ncc(-c3cnc(NCCc4ccncc4)cn3)cc2c1` [(2-Pyridin-4-yl-ethyl)-(5-quinolin-3-yl-pyrazin-2-yl)-amine]: “++”; `NC(=O)c1cccc(-c2cncc(NCc3cccc(Cl)c3)c2)c1` [3-[5-(3-Chloro-benzylamino)-pyridin-3-yl]-benzamide]: “++”.
Next, `Fc1ccc(CNc2cncc(-c3ccncc3)c2)cc1F` [[3,4′]Bipyridinyl-5-yl-(3,4-difluoro-benzyl)-amine]: “++”; `NC(=O)c1ccc(-c2cncc(NCc3cccc(O)c3)c2)cc1` [4-[5-(3-Hydroxy-benzylamino)-pyridin-3-yl]-benzamide]: “+++”.
As to `COc1ccc(-c2cnc(NCCc3ccncc3)cn2)cc1OC` [[5-(3,4-Dimethoxy-phenyl)-pyrazin-2-yl]-(2-pyridin-4-yl-ethyl)-amine], the ROK activity result is given as “++”.
For `COc1ccc(CNc2cncc(-c3ccc(O)cc3)c2)cc1` [4-[5-(4-Methoxy-benzylamino)-pyridin-3-yl]-phenol], the ROK activity result is “++”.
Next, `CC(=O)Nc1ccc(-c2cncc(NCc3cccc(O)c3)c2)cc1` [N-{4-[5-(3-Hydroxy-benzylamino)-pyridin-3-yl]-phenyl}-acetamide]: “+”; `Oc1ccc(-c2cnc(NCc3ccccc3)cn2)cc1` [4-(5-Benzylamino-pyrazin-2-yl)-phenol]: “++”.
With `Oc1ccc(-c2cncc(NCc3ccoc3)c2)cc1` [4-{5-[(Furan-3-ylmethyl)-amino]-pyridin-3-yl}-phenol], the ROK activity result was “++”.
With `COc1ccc(NC(=O)c2ccc(-c3cnc(NCCc4ccncc4)cn3)cc2)cc1` [N-(4-Methoxy-phenyl)-4-[5-(2-pyridin-4-yl-ethylamino)-pyrazin-2-yl]-benzamide], the ROK activity result is recorded as “++”.
On to `CC(=O)Nc1cccc(-c2cncc(NCc3cccc(O)c3)c2)c1` [N-{3-[5-(3-Hydroxy-benzylamino)-pyridin-3-yl]-phenyl}-acetamide], for which the ROK activity entry is reported as “+”.
Take `NC(=O)c1cccc(-c2cncc(NCc3ccc(Cl)c(Cl)c3)c2)c1` [3-[5-(3,4-Dichloro-benzylamino)-pyridin-3-yl]-benzamide]: the ROK activity result was “++”.
Next, `c1ccc2sc(-c3cnc(NCCc4ccncc4)cn3)cc2c1` [(5-Benzo[b]thiophen-2-yl-pyrazin-2-yl)-(2-pyridin-4-yl-ethyl)-amine]: “++”; `c1cc(-c2cncc(NCC3CCCN3)c2)ccn1` (stereo not drawn) [[3,4′]Bipyridinyl-5-yl-pyrrolidin-2-ylmethyl-amine]: “+”; `NC(=O)c1cccc(-c2cncc(NCc3ccc(Cl)cc3)c2)c1` [3-[5-(4-Chloro-benzylamino)-pyridin-3-yl]-benzamide]: “++”.
Next, `NC(=O)c1cccc(-c2cncc(NCc3ccc(F)c(F)c3)c2)c1` [3-[5-(3,4-Difluoro-benzylamino)-pyridin-3-yl]-benzamide]: “++”; `Oc1ccc(-c2cncc(NCc3ccc(F)c(F)c3)c2)cc1` [4-[5-(3,4-Difluoro-benzylamino)-pyridin-3-yl]-phenol]: “++”; `Oc1cccc(CNc2cncc(-c3ccncc3Cl)c2)c1` [3-[(3′-Chloro-[3,4′]bipyridinyl-5-ylamino)-methyl]-phenol]: “+++”.
Next, `O=[N+]([O-])c1cccc(Nc2cncc(-c3ccncc3)c2)c1` [[3,4′]Bipyridinyl-5-yl-(3-nitro-phenyl)-amine]: “++”.
Regarding `Nc1cccc(-c2cncc(NCc3cccc(O)c3)c2)c1` [3-{[5-(3-Amino-phenyl)-pyridin-3-ylamino]-methyl}-phenol], the ROK activity result is given as “+”.
`COc1ccc(CNc2cncc(-c3ccc(O)cc3)c2)cc1OC` [4-[5-(3,4-Dimethoxy-benzylamino)-pyridin-3-yl]-phenol]: the ROK activity entry is “+”.
Next, `NC(=O)c1cccc(-c2cncc(NCc3ccc4c(c3)OCO4)c2)c1` [3-{5-[(Benzo[1,3]dioxol-5-ylmethyl)-amino]-pyridin-3-yl}-benzamide]: “+”.
`Fc1cc(CNc2cncc(-c3ccncc3)c2)ccc1Cl` [[3,4′]Bipyridinyl-5-yl-(4-chloro-3-fluoro-benzyl)-amine]: the ROK activity result is recorded as “+++”.
Next, `c1cncc(CCNc2cnc(-c3ccc4ccccc4c3)cn2)c1` [(5-Naphthalen-2-yl-pyrazin-2-yl)-(2-pyridin-3-yl-ethyl)-amine]: “+”.
